Assay results: PubChem BioAssay (NCI)
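Interpolation was linear, between the two tested concentrations surrounding the appropriate level; five concentrations were tested over 48 hours in 96-well plates. Here, GI50 denotes the concentration required for 50% inhibition of growth. TGI: concentration producing complete growth inhibition.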

Tests used:
Assay in all cases: DTP human tumour cell line panel, 48 h
[1] = test system: A498 renal
[2] = test system: ACHN renal
[3] = test system: HCC-2998 colon
[4] = test system: K-562 leukemia
[5] = test system: NCI-H460 lung
[6] = test system: NCI/ADR-RES ovarian
[7] = test system: OVCAR-3 ovarian
[8] = test system: OVCAR-4 ovarian
[9] = test system: OVCAR-5 ovarian
[10] = test system: OVCAR-8 ovarian
[11] = test system: T-47D breast

Compound	TGI [1] [µM]	TGI [2] [µM]	TGI [3] [µM]	TGI [4] [µM]	TGI [5] [µM]	TGI [6] [µM]	TGI [7] [µM]	TGI [8] [µM]	TGI [9] [µM]	TGI [10] [µM]	TGI [11] [µM]	GI50 [1] [µM]	GI50 [2] [µM]	GI50 [3] [µM]	GI50 [4] [µM]	GI50 [5] [µM]	GI50 [6] [µM]	GI50 [8] [µM]	GI50 [10] [µM]	GI50 [11] [µM]
C1CCC2C(C1)CCCC2NC1=NCCO1 (centres undefined)	> 100	> 100	> 100	> 100	> 100	> 100	> 100	> 100	> 100	> 100	> 100	–	–	–	–	–	–	–	–	–
O=c1[nH]/c(=C/c2ccc(OCc3ccccc3)cn2)c(=O)[nH]/c1=C/c1ccc(O)cc1	> 76.7	> 100	5.21	> 100	> 100	2.09	> 76.3	0.59	> 100	> 32.4	> 63.8	–	–	–	–	–	–	–	–	–
CCn1nc2c3c(ncn3C(C)(C)O2)c1=O	> 100	> 100	> 100	> 100	> 100	> 100	–	> 100	> 100	–	> 100	–	–	–	–	–	–	–	–	–
COC(=O)[C@@H]1CCCN1CCN1CCC[C@H]1C(=O)OC	> 100	> 100	–	> 100	> 100	> 100	> 100	> 100	> 100	> 100	> 100	–	–	–	–	–	–	–	–	–
O=C(NC(Cc1ccc(I)cc1)C(=O)O)c1ccc(Br)cc1 (centres undefined)	> 100	–	> 100	> 100	> 100	> 100	> 100	> 100	> 100	> 100	–	–	–	–	–	–	–	–	–	–
Cc1ccc(S(=O)(=O)OCC(=O)O)cc1	> 100	> 100	–	> 100	> 100	> 100	> 100	> 100	> 100	> 100	> 100	–	–	–	–	–	–	–	–	–
Cc1cn(C2CC(n3cc(Cn4cc(Br)c(=O)[nH]c4=O)nn3)C(CO)O2)c(=O)[nH]c1=O (centres undefined)	> 100	> 100	> 100	–	–	> 100	> 100	> 100	> 100	> 100	> 100	–	–	–	–	–	–	–	–	–
Cc1ccn2c(=O)cc(-c3ccccc3)nc2c1	–	> 100	> 100	> 100	> 100	> 100	> 100	> 100	> 100	> 100	> 100	–	–	–	–	–	–	–	–	–
NC(=O)NNC(=O)c1nc[nH]c1[N+](=O)[O-]	> 100	–	> 100	> 100	> 100	> 100	> 100	> 100	> 100	> 100	> 100	–	–	–	–	–	–	–	–	–
O=C1c2ccccc2-c2nc(-c3cccc([N+](=O)[O-])c3)nnc21	–	16.7	–	> 100	24.8	37	–	> 100	50	86.7	> 100	–	–	–	–	–	–	–	–	–
C/C=C/C(O)P1(=O)N(Cc2ccccc2)[C@@H]2CCCC[C@H]2N1Cc1ccccc1 (some centres undefined)	–	> 25	> 25	> 25	> 25	> 25	> 25	> 25	> 25	> 25	> 25	–	–	–	–	–	–	–	–	–
O=C(Cc1ccccc1)NN1C(=O)/C(=C\c2cccc(O)c2)SC1=Nc1ccccc1	> 100	> 100	> 100	–	> 100	> 100	> 100	> 100	> 100	> 100	> 100	–	–	–	–	–	–	–	–	–
CCN1C(=O)C(=C/C=C/c2ccc([N+](=O)[O-])cc2)C(=O)N(CC)C1=S	–	32.1	> 100	48.4	> 100	45.2	32.9	> 100	> 100	39.7	> 100	–	–	–	–	–	–	–	–	–
COC(=O)C1=CC(=O)OC1(OO)c1ccccc1 (centres undefined)	–	> 100	> 100	> 100	> 100	> 100	> 100	> 100	> 100	> 100	> 100	–	–	–	–	–	–	–	–	–
C[C@]12CCc3nc(Nc4ccccc4)sc3C1=CC[C@@H]1[C@@H]2CC[C@]2(C)/C(=N/NC(N)=S)CC[C@@H]12	> 100	> 100	> 100	> 100	> 100	> 100	–	> 100	–	> 100	> 100	1.39	3.67	32.6	1.97	6.14	4.01	7.86	3.32	2.85
CCC1(C)N=C(c2cnccn2)NN1c1ccc(Cl)cc1 (centres undefined)	> 100	> 100	–	> 100	> 100	> 100	> 100	> 100	> 100	> 100	74.5	–	–	–	–	–	–	–	–	–
CC1(CF)SCc2nc3ccccc3n21 (centres undefined)	> 100	> 100	> 100	–	> 100	> 100	> 100	–	> 100	> 100	> 100	–	–	–	–	–	–	–	–	–
Nc1ccc(N=Nc2ccccc2)cc1	> 100	> 100	> 100	> 100	> 100	> 100	69.1	> 100	> 100	> 100	–	–	–	–	–	–	–	–	–	–
CC1Cn2c(nc3ccccc32)NC1=O (centres undefined)	> 100	> 100	–	> 100	> 100	> 100	> 100	> 100	> 100	> 100	> 100	–	–	–	–	–	–	–	–	–
CC1=COC(C)(C=C(C#N)C#N)CC1 (centres undefined)	> 100	> 100	> 100	> 100	> 100	> 100	–	> 100	> 100	> 100	> 100	–	–	–	–	–	–	–	–	–
COC(=O)[C@H](Cc1ccccc1)NC(=O)[C@H](Cc1ccccc1)NC(=O)[C@@H]1CCCN1C(=O)N[C@H]1C2C=CC(C2)C1C(=O)N1CCC[C@H]1C(=O)N[C@@H](C)C(=O)N[C@H](C(=O)OC)C(C)C (some centres undefined)	> 100	> 100	–	> 100	> 100	> 100	> 100	> 100	> 100	> 100	> 100	–	–	–	–	–	–	–	–	–
